In brackets after ≈: the same amount, converted by molar mass. Read-outs that look alike come from different tables or passages of the source.
Key:
[1] = test system: antibody to immunogen BSA-cmoCLA(ae); parameters: method as in PMID 32693204; conditions: breast milk; CLA = 100; cited from earlier work
[2] = test system: antibody to immunogen BSA-cmoCLA(ae); parameters: method as in doi:10.1039/C9QM00429G; conditions: milk; CLA = 100; cited from earlier work
[3] = test system: anti-BSA-cmoCLA(ae) antibodies; parameters: method as in PMID 25256165; conditions: coating antigen GEL-cmoCLA(ae), homologous; cited from earlier work
[4] = test system: coated anti-BSA-cmoCLA(ae) antibody; assay: Direct competitive antibody-coated ELISA (dcELISA) with HRP-aecAZI tracer; type: binding, rabbit; conditions: 1 h
Source text: To implement these assay formats, the IgG fraction was first isolated from antiserum via the double precipitation method using caprylic acid and ammonium sulfate, described in detail in [22]. The principle of the assays is based on competition between analyte and enzyme-labeled antigen (HRP-aecAZI) for binding to an antibody coated on the plate (dcELISA) or coupled covalently to Sepharose beads. The latter immunosorbent was used in the immunobeads assay (IBA) and immunofiltration assay (IFA).
dcELISA plate format. The direct competitive antibody-coated ELISA format was carried out in accordance with the generally accepted procedure. The antibody coated on polystyrene plates could capture the free analyte from the tested sample and enzyme-labeled hapten in a competitive manner. The sequence of manipulations corresponded to those described for a similar format earlier. The role of the volume ratios between the standard (25–275 µL) and HRP-aecAZI (25–175 µL) on the sensitivity of the assay was studied in this work.
As a result of interactions between antibody and a number of coating antigens, we have identified a preferred hapten and a rational antigen design for the most sensitive and broad-specific detection. Since the aecAZI hapten conjugated to the carrier via a zero-length arm yielded the desired assay performance, we prepared the same design enzyme-labeled hapten for the direct competitive assay format. […] Thus, a direct competitive assay format was optimized and established based on coated anti-BSA-cmoCLA(ae) antibody and HRP-aecAZI × 3 as a tracer.

[5] = test system: antibody to immunogen BSA-cmoERY(ma); parameters: method as in PMID 25308648; conditions: milk, cited from earlier work
[6] = coating Ab 100 µL, standard/sample 25 µL
[7] = coating Ab 100 µL, standard/sample 50 µL
[8] = coating Ab 100 µL, standard/sample 100 µL
[9] = coating Ab 100 µL, standard/sample 200 µL
[10] = coating Ab 100 µL, standard/sample 275 µL
[11] = coating Ab 200 µL, standard/sample 275 µL
[12] = coating Ab 300 µL, standard/sample 275 µL

SMILES: CC[C@H]1OC(=O)[C@H](C)[C@@H](O[C@H]2C[C@@](C)(OC)[C@@H](O)[C@H](C)O2)[C@H](C)[C@@H](O[C@@H]2O[C@H](C)C[C@H](N(C)C)[C@H]2O)[C@](C)(O)C[C@@H](C)C(=O)[C@H](C)[C@@H](O)[C@]1(C)O [ERY, Erythromycin]
- CR [1]: 7.5%
- CR [2]: 30.1%
- IC50 [3]: 0.20 ng/mL (≈ 0.273 nM)
- IC10 (LOD) [4, 6]: 0.04 ng/mL (≈ 0.0545 nM)
- IC20-IC80 (working range) [4, 6]: 0.097 to 0.907 ng/mL
- IC50 [4, 6]: 0.31 ng/mL (≈ 0.422 nM)
- IC10 (LOD) [4, 7]: 0.04 ng/mL (≈ 0.0545 nM)
- IC20-IC80 (working range) [4, 7]: 0.085 to 0.565 ng/mL
- IC50 [4, 7]: 0.23 ng/mL (≈ 0.313 nM)
- IC10 (LOD) [4, 8]: 0.008 ng/mL (≈ 0.0109 nM)
- IC20-IC80 (working range) [4, 8]: 0.037 to 0.400 ng/mL
- IC50 [4, 8]: 0.14 ng/mL (≈ 0.191 nM)
- IC10 (LOD) [4, 9]: 0.011 ng/mL (≈ 0.015 nM)
- IC20-IC80 (working range) [4, 9]: 0.029 to 0.253 ng/mL
- IC50 [4, 9]: 0.098 ng/mL (≈ 0.134 nM)
- IC10 (LOD) [4, 10]: 0.024 ng/mL (≈ 0.0327 nM)
- IC20-IC80 (working range) [4, 10]: 0.043 to 0.184 ng/mL
- IC50 [4, 10]: 0.091 ng/mL (≈ 0.124 nM)
- IC10 (LOD) [4, 11]: 0.002 ng/mL (≈ 0.00273 nM)
- IC20-IC80 (working range) [4, 11]: 0.008 to 0.119 ng/mL
- IC50 [4, 11]: 0.034 ng/mL (≈ 0.0463 nM)
- IC10 (LOD) [4, 12]: 0.006 ng/mL (≈ 0.00818 nM)
- IC20-IC80 (working range) [4, 12]: 0.012 to 0.119 ng/mL
- IC50 [4, 12]: 0.040 ng/mL (≈ 0.0545 nM)
- CR ([5]; ERY = 100): 100%
- IC50 [5]: 0.94 ng/mL (≈ 1.28 nM)
- LOD [5]: 0.3 ng/mL

Reference: paper PMC10605010, “Immunotechniques for the Group Determination of Macrolide Antibiotics Traces in the Environment Using a Volume-Mediated Sensitivity Enhancement Strategy” (Biosensors, 2023)
